In ChEMBL document CHEMBL5653605, “Reduced VEGF production, angiogenesis, and vascular regrowth contribute to the antitumor properties of dual mTORC1/mTORC2 inhibitors” (Cancer Res, 2011):

Tested on: Pancreatic islet cell carcinoma
Assay: Additive antitumor activity in pancreatic islet cell carcinoma in RIP-Tag2 mouse assessed as induction of apoptosis by measuring increase in activated caspase-3 level at 100 mg/kg, po bid administered via gavage for 4 days in presence of OSI-930 by immunohistochemistry analysis relative to control
Assay type: functional
Settings: time 4 day

Nc1nccn2c1c(-c1cc3cccc(Cl)c3[nH]1)nc2[C@H]1CC[C@H](C(=O)O)CC1
Activity: 700%
